Activity calls are given as the source filed them. The rule behind the calls is not given here.
Key:
Mus musculus [1] = test: Toxicity in ICR mouse assessed as effect on global effect at 1 to 10 mg/kg, sc administered every 2 days for 6 days measured 24 hrs post last dose during conditioning training; format: organism-based; parameters: dose 1-10 mg/kg, route subcutaneous; conditions: in vivo
Mus musculus [2] = test: Toxicity in ICR mouse assessed as rewarding effect by measuring increase in time spent in drug-paired compartment at 1 to 10 mg/kg, sc administered every 2 days for 6 days measured 24 hrs post last dose by conditioned place preference assay; format: organism-based; parameters: dose 1-10 mg/kg, route subcutaneous; conditions: in vivo
Mus musculus [3] = test: Toxicity in ICR mouse assessed as increase in global effect at 10 mg/kg, sc administered every 2 days for 6 days measured 24 hrs post last dose during conditioning training; format: organism-based; parameters: dose 10 mg/kg, route subcutaneous; conditions: in vivo
Mus musculus [4] = test: Toxicity in ICR mouse assessed as rewarding effect by measuring increase in time spent in drug-paired compartment at 10 mg/kg, sc administered every 2 days for 6 days measured 24 hrs post last dose by conditioned place preference assay; format: organism-based; parameters: dose 10 mg/kg, route subcutaneous; conditions: in vivo
Mus musculus [5] = test: Antinociceptive activity in ICR mouse assessed as thermal-stimulus induced tail flick latency at 3 to 10 mg/kg, sc measured up to 4 hrs relative to control; format: functional, organism-based

| SMILES | Activity (Mus musculus [1]) | Activity (Mus musculus [2]) | Activity (Mus musculus [3]) | Activity (Mus musculus [4]) | Activity (Mus musculus [5]) |
| --- | --- | --- | --- | --- | --- |
| CCC1C(=O)N(C2CCN([C@H]3CC[C@@H]4CCCc5cccc3c54)CC2)c2ccccc21 (mixture of isomers) | Non-toxic | Non-toxic |  |  |  |
| CN1CC[C@]23c4c5ccc(O)c4O[C@H]2[C@@H](O)C=C[C@H]3[C@H]1C5 [MORPHINE] |  |  | Toxic | Toxic | Active |
